Experimental findings from US5620997A, “Isothiazolones” (Warner-Lambert Company, priority 1995, dated 1997) are described below.

Series [1] has as its target T1, HIV-1 Nucleocapsid Protein (NCp7) (Human immunodeficiency virus type 1 group M subtype B, UniProt P12493).
T1 construct: The NCp7 protein containing 2 Zn-fingers and 2 Zn ions
Put plainly: Fluorescence-based (TSQ) assay of zinc ejection from purified HIV-1 NCp7. As to conditions: 10 μM compound, 2.8 μM NCp7, 47 μM TSQ, pH 7.4, 26° C., 90 minutes. Format: biochemical. The text has this: The compounds of the present invention cause the extrusion of zinc from the nucleocapsid protein (NCp7) of HIV-1. The NC protein is highly conserved among all retroviruses (South T., Blake P., et al., Biochemistry, 1990;;29:7786) and is essential for viral infectivity (Aldovini A. and Young R., J. Virology, 1990;64:1920 and Gorelick R., Nigida S., et al., J. Virology, 1990;64:3207). The zinc is normally held in NC proteins by 1 or 2 zinc fingers. In the case of HIV-1, 2 zinc fingers are present (Summers M., South T., et al., Biochemistry, 1990;29:329) and are involved specifically with the PSI site on viral RNA which controls the packaging of viral RNA. Interference of this packaging causes the formation of non-infectious virions (Dannull J., Surovoy A., et al., EMBO, 1994;13:1525). It has previously been shown that compounds that cause zinc extrusion have potent anti-HIV activity in multiple cell lines and against all retroviruses (Rice W., Schaeffer C., et al., Nature, 1993;361:473).
A fluorescence-based assay has been developed to monitor the ejection of zinc from purified HIV-1 NCp7. The fluorophore, N-(6-methoxy-8-quinolyl)-p-toluenesulfonamide (TSQ), has an increased fluorescent signal upon bonding zinc ion in solution. The NCp7 protein containing 2 Zn-fingers and 2 Zn ions is incubated with drug causing the extrusion of Zn ions. The released Zn is then sequestered by the TSQ and the increased fluorescence monitored relative to control. The assay was performed as follows: 10 μM compound was added to 2.8 μM NCp7 and 47 μM TSQ in 20 μL of pH 7.4 buffer at 26° C. for 90 minutes. Fluorescence (excitation 355 nm emission 400 nm) was monitored versus time. Controls were the NCp7 under assay conditions without drug, and apo NCp7 (no Zn) with drug. The % Zn extrusion was calculated based on the actual fluorescence measured divided by the fluorescence of all theoretical Zn extruded (5.6 μM)×100.
Table 1 below presents the results of testing several of the invention compounds in zinc extrusion assay described above. The compounds were evaluated for their ability to cause the extrusion of zinc from nucleocapsid protein NCp7 (expressed as % relative to control).

The next series concerns HIV. Put plainly: CEM cell assay, anti-HIV activity (XTT, protection from viral cytopathic effects). Format: cell-based. As to conditions: Human immunodeficiency virus 1, CCRF-CEM; Effective concentration which protects cells from viral cytopathic effects. The text has this:
The test systems utilized to establish the cellular antiviral activity of the isothiazolones of Formula I are well recognized in the art and are routinely employed for such purpose. For example, the assay utilized to evaluate the compounds activity against the HIV virus is that employed by the U.S. National Cancer Institute as described by Weislow O. S., et al., J. Natl. Cancer Inst., 1989;81:577-586, incorporated herein by reference.
The procedure is designed to detect agents acting at any stage of the virus reproductive cycle. The assay basically involves the killing of T4 lymphocytes by HIV. Small amounts of HIV are added to cells, and at least two complete cycles of virus reproduction are necessary to obtain the required cell killing. Agents which interact with virions, cells, or virus gene-products to interfere with viral activities will protect cells from cytolysis. The system is automated in several features to accommodate large numbers of candidate agents, and is generally designed to detect anti-HIV activity. However, compounds which degenerate or are rapidly metabolized in the culture conditions may not show activity in this screen.
Yet another test system employed to determine antiviral activity is called the CEM cell assay.
T4 lymphocytes (CEM cell line) are exposed to HIV at a virus to cell ratio approximately 0.05, and plated along with noninfected control cells in 96-well microliter plates.
Candidate agent is dissolved in dimethyl sulfoxide (unless otherwise noted), then diluted 1:200 in cell culture medium. Further dilutions (half-log10) are prepared before adding to an equal volume of medium containing either infected or noninfected cells.
Cultures are incubated at 37° in a 5% carbon dioxide atmosphere for 6 or 7 days. The tetrazolium salt, XTT, is added to all wells, and cultures are incubated to allow formazan color development by viable cells J. National Cancer Institute, 1989;81:577-586. Individual wells are analyzed spectrophotometrically to quantitate formazan production, and in addition are viewed microscopically for detection of viable cells confirmation of protective activity.
Drug-tested virus-infected cells are compared with drug-treated noninfected cells and with other appropriate controls (untreated infected and untreated noninfected cells, drug-contain wells without cells, etc.) on the same plate. Data are reviewed in comparison with other tests done at the same time and a determination about activity is made.

A short description of series [2]: CEM cell assay, toxicity (growth inhibition). In kind it is cell-based. The settings on record: human, cem cells; Toxic concentration which inhibits the growth of cells 50% relative to control; read-out: CEM Cell Assay TC50. As to the method:
T4 lymphocytes (CEM cell line) are exposed to HIV at a virus to cell ratio approximately 0.05, and plated along with noninfected control cells in 96-well microliter plates. Candidate agent is dissolved in dimethyl sulfoxide (unless otherwise noted), then diluted 1:200 in cell culture medium. Further dilutions (half-log10) are prepared before adding to an equal volume of medium containing either infected or noninfected cells. Cultures are incubated at 37° in a 5% carbon dioxide atmosphere for 6 or 7 days. The tetrazolium salt, XTT, is added to all wells, and cultures are incubated to allow formazan color development by viable cells J. National Cancer Institute, 1989;81:577-586. Individual wells are analyzed spectrophotometrically to quantitate formazan production, and in addition are viewed microscopically for detection of viable cells confirmation of protective activity. Drug-tested virus-infected cells are compared with drug-treated noninfected cells and with other appropriate controls (untreated infected and untreated noninfected cells, drug-contain wells without cells, etc.) on the same plate. Data are reviewed in comparison with other tests done at the same time and a determination about activity is made.

Series [3] addresses T2, rabbit reticulocyte 15-LO (Oryctolagus cuniculus, UniProt P12530).
T2 construct: rabbit reticulocyte 15-LO; from tissue; host or cells: rabbit reticulocytes
T2 sequence (P12530 1-663): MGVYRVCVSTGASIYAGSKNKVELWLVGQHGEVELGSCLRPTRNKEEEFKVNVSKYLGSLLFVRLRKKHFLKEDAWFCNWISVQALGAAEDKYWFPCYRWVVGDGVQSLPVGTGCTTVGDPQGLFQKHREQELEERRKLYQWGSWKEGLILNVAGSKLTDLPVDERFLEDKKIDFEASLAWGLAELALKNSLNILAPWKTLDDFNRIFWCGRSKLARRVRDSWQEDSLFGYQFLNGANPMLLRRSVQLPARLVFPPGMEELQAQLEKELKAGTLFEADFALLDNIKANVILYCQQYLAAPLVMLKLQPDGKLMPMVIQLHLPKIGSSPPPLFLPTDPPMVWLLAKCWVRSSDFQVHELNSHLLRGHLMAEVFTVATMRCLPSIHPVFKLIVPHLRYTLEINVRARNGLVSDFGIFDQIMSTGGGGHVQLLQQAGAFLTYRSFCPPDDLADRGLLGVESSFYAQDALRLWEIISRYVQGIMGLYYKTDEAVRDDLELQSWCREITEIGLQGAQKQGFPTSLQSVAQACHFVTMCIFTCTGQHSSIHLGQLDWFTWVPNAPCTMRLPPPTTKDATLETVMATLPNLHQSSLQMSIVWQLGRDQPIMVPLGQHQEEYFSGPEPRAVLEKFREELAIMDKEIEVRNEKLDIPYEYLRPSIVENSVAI
The experiment in a line: HPLC Assay of 15-LO Inhibition. In kind it is biochemical. As to conditions: HPLC method; linoleic acid substrate, 4° C., 10 minutes. How it is done: The isothiazolones of Formula I are also effective for treating inflammation and atherosclerosis. A characteristic feature of atherosclerosis is the accumulation of cholesteryl ester engorged from foam cells. Foam cells are derived from circulating monocytes which invade artery walls in response to hypercholesterolemia, and mature into tissue macrophages. […] Specifically, representative compounds were evaluated by the methods described by Auerbach, et al., Analytical Biochemistry, 1992;201:375-380. Two in vitro assays were utilized, both utilizing rabbit reticulocyte 15-LO, and linoleic acid as substrate, to enzymatically produce a peroxide oxidation product known as 13(S)-HPODE. N-Benzoyl leucomethylene blue was utilized as a colorimetric reagent for detection and quantification of the peroxide formation. Also, HPLC was utilized to quantify the oxidation following incubation at 4° C. for 10 minutes.
Table 3 gives the concentration of compound required to inhibit 50% of the activity of 15-LO (IC50) when measured by the HPLC method of Auerbach, et al. Table 4 gives the percent inhibition of 15-LO activity when evaluated by the colorimetric method.

On to `CC[C@H](C)[C@@H](C(=O)O)n1sc2ccccc2c1=O` [Example 2, [S-(R*,R*)]-3-Methyl-2-(3-oxo-3h-benzo[d]isothiazol-2-yl)pentanoic acid], for which the “% Zn Extrusion Relative to Control” value in series [1] was found to be 30%. This compound returned an EC50 in the series with HIV of 14000 nM. Moreover, the CC50 in series [2] is more than 100000 nM. Regarding `O=C(O)Cn1sc2ccccc2c1=O` [Example 13, 2-(3-Oxo-3h-benzo[d]isothiazol-2-yl) acetic acid], the “% Zn Extrusion Relative to Control” value in series [1] was 75%. On to `CC(C)C(C(=O)O)n1sc2ccccc2c1=O` (stereo not drawn) [Example 14, 3-Methyl-2-(3-oxo-3h-benzo[d]isothiazol-2-yl)-butanoic acid], for which the “% Zn Extrusion Relative to Control” value in series [1] turned out to be 71%. In the series on HIV, this compound gave a half-maximal effective concentration (EC50) of 21000 nM. Further, the CC50 in series [2] is more than 100000 nM.

Take `O=c1c2ccccc2sn1-c1ccccc1` [Example 15, 2-Phenyl-3-oxo-3h-benz[d]isothiazole]: the “% Zn Extrusion Relative to Control” value in series [1] came out at 97%. Take `O=C(O)CCCn1sc2ccccc2c1=O` [Example 17, 4-(3-Oxo-2-h-benzo[d]isothiaz-2-yl) butanoic acid]: the “% Zn Extrusion Relative to Control” value in series [1] was determined as 78%. The same compound displayed a half-maximal effective concentration (EC50) with HIV of 5800 nM. Besides, the CC50 in series [2] is more than 100000 nM. Turning to `Cc1ccnc(-n2sc3ccccc3c2=O)c1` [Example 18, 2-(4-Methylpyridin-2-yl)-3-oxo-3h-benzo[d]isothiazole], the “% Zn Extrusion Relative to Control” value in series [1] was found to be 100%.

With `CN(C)c1ncc2c(=O)n(Cc3ccccn3)sc2n1` [Example 23, 6-(Dimethylamino)-2-(2-pyridinylmethyl)isothiazolo [5,4-d]pyrimidin-3-(2H)-one], in series [3], 400 nM corresponded to half-maximal inhibition (IC50). Still for that read-out and setting: under `O=c1c2cnc(-c3ccccc3)nc2sn1Cc1ccccc1` [Example 24, 2-Benzyl-6-phenyl-isothiazolo[5,4-d]pyrimidin-3-one] stands 300 nM.

For `O=C(O)Cc1ccc(-n2sc3ccccc3c2=O)cc1` [Example 25, 4-(3-Oxo-3h-benz-[d]isothiazol-2-yl)-phenyl acetic acid], the “% Zn Extrusion Relative to Control” value in series [1] came to 89%. In the series on HIV, the EC50 came out at 5800 nM. Further, in series [2], the CC50 stood at 69000 nM. In turn, `O=c1c2cnc(-c3ccccc3)nc2sn1CCN1CCOCC1` [Example 27, 2-(2-Morpholin-4-yl-ethyl)-6-phenyl-isothiazolo[5,4-d) pyrimidin-3-one] returned an IC50 in series [3] of 270 nM. The same measure, in the same setting: under `O=c1c2cnc(-c3ccccc3)nc2sn1CCc1ccccc1` [Example 28, 2-Phenethyl-6-phenyl-isothiazolo[5,4-d]pyrimidin-3-one] stands 760 nM; under `O=c1c2cnc(-c3ccccc3)nc2sn1Cc1ccccn1` [Example 29, 6-phenyl-2-pyridin-2-ylmethyl-isothiazolo[5,4-d] pyrimidin-3-one], 390 nM. Same read-out and setting: as for `O=c1c2cnc(-c3ccccc3)nc2sn1CCc1ccccn1` [Example 30, 6-phenyl-2-(2-pyridin-2-yl-ethyl)-isothiazolo[5,4-d] pyrimidin-3-one], the figure is 290 nM; as for `O=c1c2cnc(N3CCCCC3)nc2sn1CCc1ccccn1` [Example 31, 6-Piperidin-1-yl-2-(2-pyridin-2-yl-ethyl)-isothiazolo [5,4-d]pyrimidin-3-one], 1300 nM; as for `O=c1[nH]sc2nc(N3CCCCC3)ncc12` [Example 32, 6-Piperidin-1-yl-isothiazolo[5,4-d]pyrimidin-3-one], 3200 nM. The same measure, in the same setting: under `O=c1c2cnc(N3CCOCC3)nc2sn1CCN1CCCCC1` [Example 33, 6-Morpholin-4-yl-2-(2-piperidin-1-yl-ethyl)-isothiazolo [5,4-d]pyrimidin-3-one] stands 120 nM; under `CN(C)c1ncc2c(=O)n(CCc3ccccn3)sc2n1` [Example 34, 6-Dimethylamino-2-(2-pyridin-2-yl-ethyl)-isothiazolo [5,4-d]pyrimidin-3-one], 1700 nM. As for `CN(C)c1ncc2c(=O)n(CCN3CCCCC3)sc2n1` [Example 35, 6-Dimethylamino-2-(2-piperidin-1-yl-ethyl)-isothiazolo [5,4-d]pyrimidin-3-one], the IC50 in series [3] turned out to be 160 nM. With `NS(=O)(=O)c1ccc(NC(=O)c2ccccc2S)cc1` [Preparation 29, 2-Mercapto-N-(4-sulfamoylphenyl)benzamide], the “% Zn Extrusion Relative to Control” value in series [1] is given as 5.8%.
